From US20200378993A1, “MEDICAL USES OF APOLIPOPROTEIN A AND ACTIVATORS THEREOF” (FUNDACIÓN IMDEA ALIMENTACIÓN, priority 2017, published 2020)

Legend:
Format in all cases: cell-based, human
[1] = system: DLD1 cells overexpressing ABCA1; test: Growth of Matrigel-embedded spheroids; conditions: treatment with Rvx-208; Matrigel-embedded spheroids from DLD1 cells overexpressing ABCA1
Source text: FIG. 8: A) Growth of spheroids derived from control cells and cells overexpressing ABCA1. The top panels correspond to the control treatment (carrier), the bottom panels correspond to treatment with Rvx-208. The growth curves represent the mean volume of a total of 30 spheroids per cell line. The inventors were able to confirm said results based on the treatment of DLD1 cells expressing ABCA1 with RVX-208 under the conditions already described in detail in Example 3. In this case, the DLD1 cells overexpressing ABCA1 were pre-treated for 72 hours before the start of the experiment with RVX-208 at a concentration of 30 μm and were subjected to a treatment with 15 μM of RVX-208 during the development of the experiments. […] The levels of caveolin-1, a protein whose increased levels have been associated with increases in cell migration and invasion, were also analyzed in this experiment.

[2] = system: DLD1 cells; test: Invasion assay (Corning BioCoat Matrigel plates)
Method: Cell viability and proliferation assays were carried out by means of XCELLigence technology (ACEA Biosciences, Inc.) following the manufacturer's indications. Migration and invasion assays were carried out in Corning® BioCoat™ Control plates (#354578) and Corning® BioCoat™ Matrigel plates (#354480), respectively, following the manufacturer's indications. For the rescue assays, the cells were treated for 72 hours with 30 μM apabetalone (RVX-208; Biovision). Antibodies: ABCA1 (Ab18180, Abcam. 1:500); caveolin-1 (Ab2910, Abcam. 1:1000); α-tubulin (T9026, Sigma 1:1000). The DLD1 cells correspond to a human colorectal cancer-derived adherent epithelial cell line (ATCC® CCL-221™). The stable cell lines capable of overexpressing ABCA1 were obtained by means of transduction with genetically modified lentivirus.
Following the same treatment regimen, the inventors carried out migration and invasion assays.
The same assays were repeated by replacing ApoA1 with a treatment with RVX-208. In this case, DLD1 cells were pre-treated for 72 hours before the start of the experiment with RVX-208 at a concentration of 30 μm and were subjected to a treatment with 15 μM of RVX-208 during the development of the experiments.
For the purpose of confirming that the effects of RVX-208 in cell phenotype recovery were due to the increase in ApoA-1 expression, the inventors inhibited the expression of said protein by means of transfection of a complementary small RNA, ShApoA1 (FIG. 9). Twenty-four hours after transfection with ShApoA1 expression vector, the inventors started treatment with 30 μM of RVX-208. Cell viability and proliferation in DLD1 cells (D_NoORF) and D1D1 cell lines expressing increased ApoA1 levels (D_ApoA1 ) were analyzed with the xCELLigence system.

[3] = system: DLD1_ABCA1 cells; test: Invasion assay (Corning BioCoat Matrigel plates); conditions: Rvx-208 with ApoA1 silenced by shApoA1; cells with high ABCA1 levels
Method: FIG. 6. A) Proliferation curve in a viability assay carried out by means of XCELLigence technology. The results for the stable cell line overexpressing ABCA1 in the absence and presence of ApoA1 are shown. The cells were treated for 72 hours before the experiment with 40 μg/ml of ApoA1 and with a concentration of 20 μg/ml during acquisition. B) Migration and invasion assays. The method followed was the same as the one described in FIG. 1. (**p-value=0.003; ****p-value<0.0001). C) ABCA1 messenger RNA level (left panel) and ABCA1 protein level (right panel) in the presence and absence of treatment with ApoA1. […]
(§1) The inventors were able to confirm said results based on the treatment of DLD1 cells expressing ABCA1 with RVX-208 under the conditions already described in detail in Example 3. […] The levels of caveolin-1, a protein whose increased levels have been associated with increases in cell migration and invasion, were also analyzed in this experiment.
For the purpose of confirming that the effects of RVX-208 in cell phenotype recovery were due to the increase in ApoA-1 expression, the inventors inhibited the expression of said protein by means of transfection of a complementary small RNA, ShApoA1 (FIG. 9). […] Cell viability and proliferation in DLD1 cells (D_NoORF) and D1D1 cell lines expressing increased ApoA1 levels (D_ApoA1 ) were analyzed with the xCELLigence system.

[4] = system: caveolin-1; test: Caveolin-1 immunodetection by Western blot; conditions: RVX-208 (30 μM) versus DMSO carrier
Method: FIG. 7. A) Proliferation curve in a viability assay carried out by means of XCELLigence technology. Growth of DLD1 cells treated with DMSO as the drug carrier and with Rvx-208 (30 μM). The significant differences existing in the slope of the graph, and therefore in the growth dynamics of the treated cells are shown in the right panel (****p-value<0.0001). B) Migration and invasion assays. The method followed was the same as the one described in FIG. 2 (*p-value=0.0407; ****p-value<0.0001). C) Expression levels of proteins E-cadherin and Vimentin in the presence and absence of Rvx-208. Analysis performed by means of quantitative PCR. The relative expression levels normalized with respect to the untreated control are shown. D) ABCA1, ApoA1, caveolin-1, and α-tubulin immunodetection by means of Western blot. α-tubulin acts as load control. The results of the cells treated with Rvx-208 (30 μM) or with the DMSO carrier are shown. E) Cholesterol flux in cells treated with Rvx-208. […]
as §1

`COc1cc(OC)c2c(=O)[nH]c(-c3cc(C)c(OCCO)c(C)c3)nc2c1` [RVX-208, 2-(4-(2-hydroxyethoxy)-3,5-dimethylphenyl)-5,7-dimethoxyquinazolin-4(3H)-one] was tested, and the “growth of three-dimensional structures (spheroids)” value [1] was “slows down the growth”, the invasive capacity ([2]; RVX-208 30 μm 72 hours then 15 μM, DLD1 cells) was “significant decreases the migratory and invasive capacity” and the “effectiveness of treatment in terms of a decrease in cell invasion capacities” value ([2]; Rvx-208 with ApoA1 silenced by shApoA1, control cells) was “reduces the effectiveness of treatment”. For the same compound, the “effectiveness of treatment in terms of a decrease in cell invasion capacities” value [3] was “reduces the effectiveness of treatment” and the caveolin-1 protein levels [4] was “capable of reducing the levels of said protein”.
